Source: patent publication US8143278B2, “Organic compounds” (Novartis AG, priority 2006, dated 2012)

Key:
aldosterone synthase = target: T1, aldosterone synthase (Homo sapiens, UniProt P19099); assay: in vitro aldosterone synthase inhibition (ASI cell), aldosterone production in NCI-H295R cells; assay type: cell-based; conditions: 1 μM Ang II, 24 hr
T1 construct: host or cells: NCI-H295R human adrenocortical carcinoma cells
T1 sequence (P19099 25-503): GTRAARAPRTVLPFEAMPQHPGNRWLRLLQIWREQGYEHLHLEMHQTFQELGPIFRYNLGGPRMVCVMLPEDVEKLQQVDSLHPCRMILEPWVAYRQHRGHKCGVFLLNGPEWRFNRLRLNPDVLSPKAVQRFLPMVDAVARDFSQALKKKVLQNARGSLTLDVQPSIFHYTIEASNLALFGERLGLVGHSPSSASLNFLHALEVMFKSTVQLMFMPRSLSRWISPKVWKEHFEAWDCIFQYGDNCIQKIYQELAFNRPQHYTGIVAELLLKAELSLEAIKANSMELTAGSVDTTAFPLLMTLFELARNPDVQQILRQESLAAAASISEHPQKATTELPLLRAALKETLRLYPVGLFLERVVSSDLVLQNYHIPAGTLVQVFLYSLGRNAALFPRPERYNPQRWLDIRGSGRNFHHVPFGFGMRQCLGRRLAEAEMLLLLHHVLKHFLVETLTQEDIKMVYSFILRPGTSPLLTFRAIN
Source text: Human adrenocortical carcinoma NCI-H295R cell line is obtained from American Type Culture Collection (Manassas, Va.). Insulin/transferrin/selenium (ITS)-A supplement (100×), DMEM/F-12, antibiotic/antimycotic (100×), and fetal calf serum (FCS) are purchased from Gibco (Grand Island, N.Y.). Anti-mouse PVT scintillation proximity assay (SPA) beads and NBS 96-well plates are obtained from Amersham (Piscataway, N.J.) and Corning (Acton, Mass.), respectively. Solid black 96-well flat bottom plates are purchased from Costar (Corning, N.Y.). Aldosterone and angiotensin (Ang II) are purchased from Sigma (St. Louis, Mo.). D[1,2,6,7-^3H(N)]aldosterone was acquired from PerkinElmer (Boston, Mass.). Nu-serum was a product of BD Biosciences (Franklin Lakes, N.J.). The NADPH regenerating system, dibenzylfluorescein (DBF), and human aromatase Supersomes® are obtained from Gentest (Woburn, Mass.).
For in vitro measurement of aldosterone activity, human adrenocortical carcinoma NCI-H295R cells are seeded in NBS 96-well plates at a density of 25,000 cells/well in 100 μl of a growth medium containing DMEM/F12 supplemented with 10% FCS, 2.5% Nu-serum, 1 μg ITS/ml, and 1× antibiotic/antimycotic. The medium is changed after culturing for 3 days at 37° C. under an atmosphere of 5% CO2/95% air. On the following day, cells are rinsed with 100 μl of DMEM/F12 and incubated with 100 μl of treatment medium containing 1 μM Ang II and a compound at different concentrations in quadruplicate wells at 37° C. for 24 hr. At the end of incubation, 50 μl of medium is withdrawn from each well for measurement of aldosterone production by an RIA using mouse anti-aldosterone monoclonal antibodies.
Measurement of aldosterone activity can also be performed using a 96-well plate format. Each test sample is incubated with 0.02 μCi of D-[1,2,6,7-^3H(N)]aldosterone and 0.3 μg of anti-aldosterone antibody in phosphate-buffered saline (PBS) containing 0.1% Triton X-100, 0.1% bovine serum albumin, and 12%, glycerol in a total volume of 200 μl at room temperature for 1 hr. Anti-mouse PVT SPA beads (50 μl) are then added to each well and incubated overnight at room temperature prior to counting in a Microbeta plate counter. The amount of aldosterone in each sample is calculated by comparing with a standard curve generated using known quantities of the hormone.
Full concentration-response curves of the test compound are performed at least 3 times. The IC50 values are derived using a non-linear least squares curve-fitting program from Microsoft XLfit.

CYP11B1 = target: T2, CYP11B1 (Homo sapiens, UniProt P15538); assay: in vitro CYP11B1 inhibition in NCI-H295R cells; assay type: cell-based; conditions: read-out: % inhibition CYP11B1 @ 10 nM
T2 construct: Thus, the NCI-H295R cells have CYP11B1 (steroid 11 p-hydroxylase); host or cells: NCI-H295R human adrenocortical carcinoma cells
T2 sequence (P15538 25-503): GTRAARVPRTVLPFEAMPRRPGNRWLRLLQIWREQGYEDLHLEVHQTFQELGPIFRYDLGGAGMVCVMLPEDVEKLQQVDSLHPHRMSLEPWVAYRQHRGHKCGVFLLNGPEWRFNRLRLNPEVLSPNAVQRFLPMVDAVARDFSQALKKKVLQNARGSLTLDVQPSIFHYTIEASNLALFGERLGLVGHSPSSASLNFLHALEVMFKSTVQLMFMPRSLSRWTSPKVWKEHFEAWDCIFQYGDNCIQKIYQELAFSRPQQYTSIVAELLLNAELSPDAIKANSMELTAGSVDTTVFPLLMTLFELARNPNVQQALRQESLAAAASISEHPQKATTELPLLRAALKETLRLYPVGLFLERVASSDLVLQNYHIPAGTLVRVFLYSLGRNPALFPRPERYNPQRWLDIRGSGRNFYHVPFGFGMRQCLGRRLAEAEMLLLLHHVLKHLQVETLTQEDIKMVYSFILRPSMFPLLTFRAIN
Source text: The cell line NCI-H295R was originally isolated from an adrenocortical carcinoma and has been characterized in the literature through the stimulable secretion of steroid hormones and the presence of the enzymes essential for steroidogenesis. Thus, the NCI-H295R cells have CYP11B1 (steroid 11 p-hydroxylase). The cells show the physiological property of zonally undifferentiated human foetal adrenocortical cells which, however, have the capacity to produce the steroid hormones which are formed in the three, phenotypically distinguishable zones in the adult adrenal cortex. […]
The excretion of aldosterone, cortisol, corticosterone and estradiol/estrone into the culture medium can be detected and quantified by commercially available, specific monoclonal antibodies in radioimmunoassays in accordance with the manufacturer's instructions.
Inhibition of the release of certain steroids can be used as a measure of the respective enzyme inhibition by the added test compounds. The dose-dependent inhibition of enzymic activity by a compound is calculated by means of an inhibition plot which is characterized by an IC50. […]

IC50 (aldosterone synthase) [nM]	inhibition at 0.01 µM (CYP11B1) [%]	Structure (SMILES)
34	84	COc1ccc2c(c1)NC(=O)C(C)(C)C2n1ccnc1 (racemic) [Compound 6, 7-methoxy-4-Imidazol-1-yl-3,3-dimethyl-3,4-dihydro-1H-quinolin-2-one]
12		Cc1cncn1C1c2ccc(F)cc2NC(=O)C1(C)C (racemic) [Compound 9, 7-Fluoro-3,3-dimethyl-4-(5-methyl-imidazol-1-yl)-3,4-dihydro-1H-quinolin-2-one]

The next lines start with the compound.

Structure (SMILES)	IC50 (aldosterone synthase) [nM]	inhibition at 0.01 µM (CYP11B1) [%]
CN1C(=O)C(C)(C)C(n2ccnc2)c2ccccc21 (racemic) [Compound 7, 4-Imidazol-1-yl-1,3,3-trimethyl-3,4-dihydro-1H-quinolin-2-one]	10	100
CC1(C)C(=O)Nc2cccc(Cl)c2C1n1cncc1CO (racemic) [Compound 8, 5-Chloro-4-(5-hydroxymethyl-imidazol-1-yl)-3,3-dimethyl-3,4-dihydro-1H-quinolin-2-one]	7	
Cc1noc(-c2cncn2C2c3ccccc3NC(=O)C2(C)C)n1 (racemic) [Compound 10, 3,3-Dimethyl-4-[5-(3-methyl-[1,2,4]oxadiazol-5-yl)-imidazol-1-yl]-3,4-dihydro-1H-quinolin-2-one]	137	
